Source: patent US9593097B2, “Axl inhibitors” (Pfizer Inc., priority 2014, dated 2017)

Molecular target: Axl phosphorylation in 293MSR-AxlWT6 cells (Homo sapiens (Human), UniProt P30530)
Assay: Cellular Axl phosphorylation ELISA assay (Gas6-stimulated 293MSR-AxlWT6 cells)
Type: cell-based
Conditions: Table 4A, read-out: CELL AXL IC50
Procedure: Cellular Axl Phosphorylation ELISA Assay
After 6-7 hrs in tissue culture incubator at 37° C. 5% CO2, medium was removed, serum-free medium was added (with 0.04% bovine serum albumin) and plates were returned to incubator where they remained overnight. […] Media was then removed and lysis buffer was added to wells and shaken at 4° C. for 30 min to generate protein lysates. Subsequently, phosphorylation of Axl was assessed by a sandwich ELISA method using a DuoSet IC Human Phospho-Axl ELISA assay kit (R&D System), an immobilized mouse anti-human Axl antibody and an anti-phospho-tyrosine-HRP antibody as a detection antibody. Antibody-coated plates were (a) incubated in presence of protein lysates at room temperature for 2 hrs, (b) washed seven times in 0.1% Tween 20 in PBS, (c) incubated with secondary antibody (a horseradish peroxidase-conjugated […]) for 2 hrs, (d) washed seven times again, (e) TMB peroxidase substrate (Bio-Rad) was added to initiate a colorimetric reaction and stopped by adding 0.2 N H2SO4, and (f) measured at OD 450 nm using a spectrophotometer. IC50 values were calculated by concentration-response curve fitting using a four-parameter analytic method and reported in μM.
For Table 4B, IC50 values were calculated by concentration-response curve fitting using a four-parameter analytic method and reported in nM.

Axl phosphorylation in 293MSR-AxlWT6 cells, sequence (P30530 26-894): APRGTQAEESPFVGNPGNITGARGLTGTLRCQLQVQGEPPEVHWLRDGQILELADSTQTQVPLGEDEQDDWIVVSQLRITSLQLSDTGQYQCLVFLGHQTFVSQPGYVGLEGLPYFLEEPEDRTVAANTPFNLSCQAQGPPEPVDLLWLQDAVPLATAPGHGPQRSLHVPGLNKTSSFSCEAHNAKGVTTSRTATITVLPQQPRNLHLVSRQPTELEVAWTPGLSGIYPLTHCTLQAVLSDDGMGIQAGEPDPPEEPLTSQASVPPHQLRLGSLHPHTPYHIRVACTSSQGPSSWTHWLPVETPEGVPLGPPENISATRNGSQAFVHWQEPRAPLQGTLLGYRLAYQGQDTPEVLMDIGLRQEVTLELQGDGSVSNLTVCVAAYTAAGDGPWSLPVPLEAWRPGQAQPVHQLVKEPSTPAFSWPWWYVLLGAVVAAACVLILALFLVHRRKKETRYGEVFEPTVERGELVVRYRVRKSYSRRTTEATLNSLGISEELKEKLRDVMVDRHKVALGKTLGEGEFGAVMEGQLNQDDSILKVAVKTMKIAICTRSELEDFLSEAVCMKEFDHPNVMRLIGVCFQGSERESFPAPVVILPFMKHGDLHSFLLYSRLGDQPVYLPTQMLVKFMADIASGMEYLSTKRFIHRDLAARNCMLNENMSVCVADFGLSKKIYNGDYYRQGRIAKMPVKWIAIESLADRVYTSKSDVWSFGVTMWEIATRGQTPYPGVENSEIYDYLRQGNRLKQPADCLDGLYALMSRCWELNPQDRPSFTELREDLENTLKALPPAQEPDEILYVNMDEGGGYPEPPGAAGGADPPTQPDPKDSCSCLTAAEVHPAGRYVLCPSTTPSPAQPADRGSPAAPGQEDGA

| Molecule | IC50 |
| --- | --- |
| C[C@H](CO)NC(=O)c1cc(N2CCC(c3n[nH]c4ncccc34)CC2)nc(OC[C@H]2C[C@H]2C#N)n1 [Example 43, 2-{[(1S,2R)-2-cyanocyclopropyl]methoxy}-N-[(2R)-1-hydroxypropan-2-yl]-6-[4-(1H-pyrazolo[3,4-b]pyridin-3-yl)piperidin-1-yl]pyrimidine-4-carboxamide] | 131 nM |
| C[C@H](CO)NC(=O)c1cc(N2CCC(c3c[nH]c4ncccc34)CC2)nc(OC[C@H]2CCO2)n1 [Example 50, N-[(2R)-1-hydroxypropan-2-yl]-2-[(2R)-oxetan-2-ylmethoxy]-6-[4-(1H-pyrrolo[2,3-b]pyridin-3-yl)piperidin-1-yl]pyrimidine-4-carboxamide] | 15.5 nM |
| CCNC(=O)c1cc(N2CCC(COc3cc(-c4cnn(CCO)c4)cnc3N)CC2)nc(O[C@H](C)COC)n1 [Example 86, 6-{4-[({2-amino-5-[1-(2-hydroxyethyl)-1H-pyrazol-4-yl]pyridin-3-yl}oxy)methyl]piperidin-1-yl}-N-ethyl-2-{[(2R)-1-methoxypropan-2-yl]oxy} pyrimidine-4-carboxamide] | 16.7 nM |
| N#CC1(COc2nc(C(=O)NCC(F)(F)F)nc(N3CCC(c4c[nH]c5nccnc45)CC3)n2)CC1 [Example 132, 4-(4-(5H-pyrrolo[2,3-b]pyrazin-7-yl)piperidin-1-yl)-6-((1-cyanocyclopropyl)methoxy)-N-(2,2,2-trifluoroethyl)-1,3,5-triazine-2-carboxamide] | 231 nM |
| C[C@@H](NC(=O)c1cc(N2CCC(c3cccc(C(N)=O)n3)CC2)nc(OCC2CC2(F)F)n1)C(C)(C)O (stereo partly drawn) [Example 17, 6-[4-(6-carbamoylpyridin-2-yl)piperidin-1-yl]-2-[(2,2-difluoro-cyclopropyl)methoxy]-N-[(2R)-3-hydroxy-3-methylbutan-2-yl]pyrimidine-4-carboxamide] | 39.9 nM |
| N#C[C@@H]1C[C@@H]1COc1nc(C(=O)NC23CC(C2)C3)cc(N2CCC(c3n[nH]c4ncccc34)C(F)C2)n1 (single isomer, unassigned) [Example 74] | 15.5 nM |
| C[C@H](CO)NC(=O)c1cc(N2CCC(c3n[nH]c4ncccc34)CC2)nc(OC[C@H]2CCOC2)n1 [Example 383, N-[(2R)-1-hydroxypropan-2-yl]-6-[4-(1H-pyrazolo[3,4-b]pyridin-3-yl)piperidin-1-yl]-2-[(3S)-tetrahydrofuran-3-ylmethoxy]pyrimidine-4-carboxamide] | 120 nM |
| COC[C@@H](C)Oc1nc(C(=O)NC2(C#N)CCC2)cc(N2CCC(c3n[nH]c4ncccc34)CC2)n1 [Example 14, N-(1-cyanocyclobutyl)-2-{[(2R)-1-methoxypropan-2-yl]oxy}-6-[4-(1H-pyrazolo[3,4-b]pyridin-3-yl)piperidin-1-yl]pyrimidine-4-carboxamide] | 12.4 nM |
| CN(C)CCOc1ccc(C(N)=O)nc1C1CCN(c2cc(C(=O)NC3CCC3)nc(OCC3CC3(F)F)n2)CC1 (centres unmarked) [Example 39, 6-(4-{6-carbamoyl-3-[2-(dimethylamino)ethoxy]pyridin-2-yl}piperidin-1-yl)-N-cyclobutyl-2-[(2,2-difluoro-cyclopropyl)methoxy] pyrimidine-4-carboxamide] | 83.8 nM |
| 6-{4-[(3-amino- 1H-indazol-4- yl)oxy]piperidin-1- yl}-N- (bicyclo[1.1.1]pent- 1-yl)-2-[(1- cyanocyclopropyl) methoxy] pyrimidine- 4-carboxamide [Example 19] | 24.7 nM |
| C[C@H](CO)NC(=O)c1cc(N2CCC(c3n[nH]c4ncccc34)CC2)nc(OCC2CC2)n1 [Example 72, 2-(cyclopropyl-methoxy)-N-[(2R)-1-hydroxypropan-2-yl]-6-[4-(1H-pyrazolo[3,4-b]pyridin-3-yl)piperidin-1-yl]pyrimidine-4-carboxamide] | 4.31 nM |
| C[C@H](CO)NC(=O)c1cc(N2CCC(c3c[nH]c4ncccc34)CC2)nc(OC[C@H]2C[C@H]2C#N)n1 [Example 51, 2-{[(1S,2R)-2-cyanocyclopropyl]methoxy}-N-[(2R)-1-hydroxypropan-2-yl]-6-[4-(1H-pyrrolo[2,3-b]pyridin-3-yl)piperidin-1-yl]pyrimidine-4-carboxamide] | 7.89 nM |
| N#CC1(COc2nc(C(=O)NCC(F)(F)F)cc(N3CCC(COc4cncnc4N)CC3)n2)CC1 [Example 31, 6-(4-{[(4-aminopyrimidin-5-yl)oxy]methyl}piperidin-1-yl)-2-[(1-cyanocyclopropyl)methoxy]-N-(2,2,2-trifluoroethyl) pyrimidine-4-carboxamide] | 12.6 nM |
| CCNC(=O)c1cc(N2CCC(COc3cc(-c4cnn(C)c4)cnc3N)CC2)nc(OC[C@H]2C[C@H]2C#N)n1 [Example 25, 6-[4-({[2-amino-5-(1-methyl-1H-pyrazol-4-yl)pyridin-3-yl]oxy}methyl)piperidin-1-yl]-2-{[(1S,2R)-2-cyanocyclopropyl]methoxy}-N-ethylpyrimidine-4-carboxamide] | 1.78 nM |
| N#C[C@@H]1C[C@@H]1COc1nc(C(=O)NC23CC(C2)C3)cc(N2CCC(c3n[nH]c4ncc(OCCO)cc34)CC2)n1 [Example 81, N-(bicyclo[1.1.1]pent-1-yl)-2-{[(1S,2R)-2-cyanocyclopropyl]methoxy}-6-{4-[5-(2-hydroxyethoxy)-1H-pyrazolo[3,4-b]pyridin-3-yl]piperidin-1-yl}pyrimidine-4-carboxamide] | 5.21 nM |
| COc1ccnc2[nH]cc(C3CCN(c4nc(OC[C@H]5C[C@H]5C#N)nc(C(=O)NCC(F)(F)F)n4)CC3)c12 [Example 380, 4-{[(1S,2R)-2-cyanocyclopropyl]methoxy}-6-[4-(4-methoxy-1H-pyrrolo[2,3-b]pyridin-3-yl)piperidin-1-yl]-N-(2,2,2-trifluoroethyl)-1,3,5-triazine-2-carboxamide] | 0.72 nM |
| NC(=O)c1nc(C2CCN(c3cc(C(=O)NCC(F)(F)F)nc(OCC4CC4(F)F)n3)CC2)ccc1N (centres unmarked) [Example 5, 6-[4-(5-amino-6-carbamoylpyridin-2-yl)piperidin-1-yl]-2-[(2,2-difluoro-cyclopropyl)methoxy]-N-(2,2,2-trifluoroethyl) pyrimidine-4-carboxamide] | 12.4 nM |
| N#CC1(COc2nc(C(=O)NC34CC(C3)C4)nc(N3CCC(COc4cccnc4N)CC3)n2)CC1 [Example 90, 4-(4-{[(2-aminopyridin-3-yl)oxy]methyl}piperidin-1-yl)-N-(bicyclo[1.1.1]pent-1-yl)-6-[(1-cyanocyclopropyl)methoxy]-1,3,5-triazine-2-carboxamide] | 6.98 nM |
| COCCNC(=O)c1cc(N2CCC(c3ccc(N)c(C(N)=O)n3)CC2)nc(O[C@H](C)COC)n1 [Example 7, 6-[4-(5-amino-6-carbamoylpyridin-2-yl)piperidin-1-yl]-N-(2-methoxyethyl)-2-{[(2R)-1-methoxypropan-2-yl]oxy}pyrimidine-4-carboxamide] | 14.9 nM |
| CN(C)CCOc1ccc(C(N)=O)nc1C1CCN(c2cc(C(=O)NC3CCC3)nc(OC[C@H]3C[C@H]3C#N)n2)CC1 [Example 18, 6-(4-{6-carbamoyl-3-[2-(dimethylamino)ethoxy]pyridin-2-yl}piperidin-1-yl)-2-{[(1S,2R)-2-cyanocyclopropyl]methoxy}-N-cyclobutyl-pyrimidine-4-carboxamide] | 64.9 nM |
